We go through 25 molecules from patent US7102009B2, “Substituted amine derivatives and methods of use” (Amgen Inc., priority 2001, dated 2006).

This assay relates to Human Umbilical Vein Endothelial cells (VEGF-stimulated HUVEC proliferation). The experiment in a line: HUVEC Proliferation Assay (VEGF-stimulated). Type of assay: cell-based. The conditions noted are these: VEGF 50 ng/mL, 72 h incubation, CyQuant readout, read-out: inhibited VEGF-stimulated HUVEC proliferation at a level below (IC50). The method, boiled down:
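Pooled-donor HUVECs (passage 2–3) seeded in DMEM+10% FBS for 22 h, then pre-treated 2–3 h with five-point, five-fold compound dilutions (0.25% DMSO final). Stimulated with 50 ng/mL VEGF (bFGF 20 ng/mL on separate plates) for 72 h at 37 °C. CyQuant fluorescence (485/530 nm) after freeze-thaw; IC50 from 4-parameter fit.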

Consider `O=C(Nc1ccc(C(F)(F)C(F)(F)F)cc1)c1cccnc1Nc1ccc2cn[nH]c2c1` [Example 123, 2-(1H-Indazol-6-ylamino)-N-(4-pentafluoroethyl-phenyl)-nicotinamide], for which the IC50 is less than 50 nM.
To `CC(C)(C)c1ccc(NC(=O)c2cccnc2Nc2ccc3cn[nH]c3c2)cc1NC1CCNCC1` [Example 124, N-[4-tert-Butyl-3-(piperidin-4-ylamino)-phenyl]-2-(1H-indazol-6-ylamino)-nicotinamide] belongs less than 50 nM.
To `O=C(Nc1cc(CN2CCNCC2)cc(C(F)(F)F)c1)c1cccnc1Nc1ccc2cn[nH]c2c1` [Example 125, 2-(1H-Indazol-6-ylamino)-N-(3-piperazin-1-ylmethyl-5-trifluoromethyl-phenyl)-nicotinamide] belongs less than 50 nM.
To `CC1(C)CNCc2cc(NC(=O)c3cccnc3Nc3ccc4cn[nH]c4c3)ccc21` [Example 126, N-(4,4-Dimethyl-1,2,3,4-tetrahydro-isoquinolin-7-yl)-2-(1H-indazol-6-ylamino)-nicotinamide] belongs less than 50 nM.
Turning to `CC1(C)CC(=O)Nc2cc(NC(=O)c3cccnc3Nc3ccc4cn[nH]c4c3)ccc21` [Example 575, N-(4,4-Dimethyl-2-oxo-1,2,3,4-tetrahydro-quinolin-7-yl)-2-(1H-indazol-6-ylamino)-nicotinamide], the IC50 is less than 50 nM.
To `CN1CCC[C@@H]1COc1cc(NC(=O)c2cccnc2Nc2ccc3cn[nH]c3c2)cc(C(F)(F)F)c1` [Example 577, 2-(1H-Indazol-6-ylamino)-N-(3-((((2R)-1-methyl-2-pyrrolidinyl)methyl)oxy)-5-(trifluoromethyl)phenyl)-3-pyridinecarboxamide] belongs less than 50 nM.
As for `CC(=O)N1CCC[C@@H]1COc1cc(NC(=O)c2cccnc2Nc2ccc3cn[nH]c3c2)cc(C(F)(F)F)c1` [Example 580, N-(3-((((2R)-1-Acetyl-2-pyrrolidinyl)methyl)oxy)-5-(trifluoromethyl)phenyl)-2-(1H-indazol-6-ylamino)-3-pyridinecarboxamide], the IC50 was less than 50 nM.
To `O=C(Nc1cc(NC(=O)c2cccnc2Nc2ccc3cn[nH]c3c2)cc(C(F)(F)F)c1)O[C@H]1CCOC1` [Example 581, (3S)-Tetrahydro-3-furanyl 3-(((2-(1H-indazol-6-ylamino)-3-pyridinyl)carbonyl)amino)-5-(trifluoromethyl)phenylcarbamate] belongs less than 50 nM.
As to `CC(C)N1CCC[C@H]1COc1cc(NC(=O)c2cccnc2Nc2ccc3cn[nH]c3c2)cc(C(F)(F)F)c1` [Example 583, 2-(1H-Indazol-6-ylamino)-N-(3-((((2S)-1-(1-methylethyl)-2-pyrrolidinyl)methyl)oxy)-5-(trifluoromethyl)phenyl)-3-pyridinecarboxamide], the IC50 is less than 50 nM.
To `CS(=O)(=O)Nc1cc(NC(=O)c2cccnc2Nc2ccc3cn[nH]c3c2)cc(C(F)(F)F)c1` [Example 586, 2-(1H-Indazol-6-ylamino)-N-(3-((methylsulfonyl)amino)-5-(trifluoromethyl)phenyl)-3-pyridinecarboxamide] belongs less than 50 nM; to `CC(C)(C)c1ccc(NC(=O)c2cccnc2Nc2ccc3cn[nH]c3c2)cc1NC(=O)CN1CCCC1` [Example 587, N-(4-(1,1-Dimethylethyl)-3-((1-pyrrolidinylacetyl)amino)phenyl)-2-(1H-indazol-6-ylamino)-3-pyridinecarboxamide], less than 50 nM; to `CC(C)(C)c1ccc(NC(=O)c2cccnc2Nc2ccc3cn[nH]c3c2)cc1NC(=O)CN1CCOCC1` [Example 588, N-(4-(1,1-Dimethyl)-3-((4-morpholinylacetyl)amino)phenyl)-2-(1H-indazol-6-ylamino)-3-pyridinecarboxamide], less than 50 nM.
To `CC1(C)CC(=O)Nc2nc(NC(=O)c3cccnc3Nc3ccc4cn[nH]c4c3)ccc21` [Example 593, N-(5,5-Dimethyl-7-oxo-5,6,7,8-tetrahydro-[1,8]naphthyridin-2-yl)-2-(1H-indazol-6-ylamino)-nicotinamide] belongs less than 50 nM.
For the molecule `CC1(C)CNCc2cc(NC(=O)c3cccnc3Nc3ccc4[nH]c(=O)[nH]c4c3)ccc21` [Example 594, N-(4,4-Dimethyl-1,2,3,4-tetrahydro-isoquinolin-7-yl)-2-(2-oxo-2,3-dihydro-1H-benzoimidazol-5-ylamino)-nicotinamide], the IC50 is less than 50 nM.
To `CC(C)(C)c1ccc(NC(=O)c2cccnc2Nc2cccc3c2CNC3=O)cc1` [Example 600, N-(4-tert-Butyl-phenyl)-2-(1-oxo-2,3-dihydro-1H-isoindol-4-ylamino)-nicotinamide] belongs less than 50 nM; to `O=C(Nc1ccc(C(F)(F)C(F)(F)F)cc1)c1cccnc1Nc1cccc2c1CNC2=O` [Example 602, 2-(1-Oxo-2,3-dihydro-1H-isoindol-4-ylamino)-N-(4-pentafluoroethyl-phenyl)-nicotinamide], less than 50 nM.
To `CN1CCC(C(C)(C)c2ccc(NC(=O)c3cccnc3Nc3cccc4c3CNC4=O)cc2)CC1` [Example 603, N-{4-[1-Methyl-1-(1-methyl-piperidin-4-yl)-ethyl]-phenyl}-2-(1-oxo-2,3-dihydro-1H-isoindol-4-ylamino)-nicotinamide] belongs less than 50 nM; to `O=C(Nc1ccc(C(OC[C@@H]2CCCN2)(C(F)(F)F)C(F)(F)F)cc1)c1cccnc1Nc1ccc2cn[nH]c2c1` [Example 607, 2-(1H-Indazol-6-ylamino)-N-{4-[2,2,2-trifluoro-1-(pyrrolidin-2-ylmethoxy)-1-trifluoromethyl-ethyl]-phenyl}-nicotinamide], less than 50 nM.
Consider `O=C(Nc1ccc(C(O)(C(F)(F)F)C(F)(F)F)cc1)c1cccnc1Nc1cccc2c1CNC2=O` [Example 608, 2-(1-Oxo-2,3-dihydro-1H-isoindol-4-ylamino)-N-[4-(2,2,2-trifluoro-1-hydroxy-1-trifluoromethyl-ethyl)-phenyl]-nicotinamide], for which the IC50 is less than 50 nM.
As to `O=C(Nc1cccc(C(O)(C(F)(F)F)C(F)(F)F)c1)c1cccnc1Nc1cccc2c1CNC2=O` [Example 609, 2-(1-Oxo-2,3-dihydro-1H-isoindol-4-ylamino)-N-[3-(2,2,2-trifluoro-1-hydroxy-1-trifluoromethyl-ethyl)-phenyl]-nicotinamide], the IC50 was less than 50 nM.
For `CN(C)CC(=O)Nc1cc(NC(=O)c2cccnc2Nc2ccc3cn[nH]c3c2)ccc1C(C)(C)C` [Example 613, N-(4-(1,1-Dimethylethyl)-3-((N,N-dimethylglycyl)amino)phenyl)-2-(1H-indazol-6-ylamino)-3-pyridinecarboxamide], the IC50 was less than 50 nM.
To `CN1CCC[C@H]1COc1cc(NC(=O)c2cccnc2Nc2ccc3cn[nH]c3c2)ccc1C(F)(F)F` [Example 616, 2-(1H-indazol-6-ylamino)-N-(3-((((2S)-1-methyl-2-pyrrolidinyl)methyl)oxy)-4-(trifluoromethyl)phenyl)-3-pyridinecarboxamide] belongs less than 50 nM.
To `CC1(C)CN(S(C)(=O)=O)c2cc(NC(=O)c3cccnc3Nc3ccc4cn[nH]c4c3)ccc21` [Example 625, N-(3,3-dimethyl-1-(methylsulfonyl)-2,3-dihydro-1H-indol-6-yl)-2-(1H-indazol-6-ylamino)-3-pyridinecarboxamide] belongs less than 50 nM; to `CC1(C)CCNc2cc(NC(=O)c3cccnc3Nc3ccc4c(c3)C(=O)NC4)ccc21` [Example 629, N-(4,4-Dimethyl-1,2,3,4-tetrahydro-isoguinolin-7-yl)-2-(1-oxo-2,3-dihydro-1H-isoindol-4-ylamino)-nicotinamide], less than 50 nM; to `CC1(C)CN(C(=O)[C@@H]2CCCN2)c2cc(NC(=O)c3cccnc3Nc3ccc4cn[nH]c4c3)ccc21` [Example 631, N-[3,3-Dimethyl-1-(pyrrolidine-2-carbonyl)-2,3-dihydro-1H-indol-6-yl]-2-(1H-indazol-6-ylamino)-nicotinamide], less than 50 nM.
